This note sets out measurements from US10905692B2, “Combination therapy for treating malignancies” (Agios Pharmaceuticals, Inc., priority 2015, dated 2021).

The nature of the series: blood bilirubin in subjects with a UGT1A1 mutation receiving COMPOUND 1. The class given is in vivo, human. An excerpt: All toxicity ≥Grade 3 not due to underlying AML or complications of the disease or myelosuppressive treatment, with the exception of ≥Grade 3 blood bilirubin increases in subjects with a UGT1A1 mutation receiving COMPOUND 1.

The structures appear in SMILES notation.

For `CC(C)(O)CNc1nc(Nc2ccnc(C(F)(F)F)c2)nc(-c2cccc(C(F)(F)F)n2)n1` [COMPOUND 1, 2-methyl-1-[(4-[6-(trifluoromethyl)pyridin-2-yl]-6-{[2-(trifluoromethyl)pyridin-4-yl]amino}-1,3,5-triazin-2-yl)amino]propan-2-ol], the blood bilirubin increases result is “isolated blood bilirubin increases have been seen”.
